Measured values: patent publication US8173808B2, “Substituted naphthalenyl-pyrimidine compounds” (ArQule, Inc., priority 2009, dated 2012)

Legend:
MDA-MB-231 = assay: MTS assay, MDA-MB-231; type: cell-based; details: Homo sapiens, 72 hours, 1 Percent FBS
Experimental: (§1) Cells were maintained at 37° C., 5% CO2 in DMEM media supplemented with 1% fetal bovine serum, penicillin/streptomycin and fungizone (Invitrogen). Cells were seeded into 96-well tissue culture plates at 3000 per well and cultured at 37° C. for 18 hours. Test compounds were dissolved and diluted to 300× in DMSO then diluted 1:40 in DMEM. Cells were incubated with test compounds for 72 hours followed by incubation with tetrazolium compound (3-(4,5-dimethylthiazol-2-yl)-5-(3-carboxymethoxyphenyl)-2-(4-sulfophenyl)-2H-tetrazolium, inner salt; MTS) and the electron coupling reagent, phenazine methosulfate (PMS) for 4 hours. […] The ability of compounds to inhibit cell growth in this assay is correlated with the reduction of dehydrogenase enzyme activity found in metabolically active cells. The measurement of the absorbance of the formazan was assessed using a Victor (Perkin Elmer) microplate reader at 492 nm. The calculated IC50 value is the concentration of the test compound that causes a 50% decrease in the absorbance.

DLD-1 = assay: MTS assay, DLD-1; type: cell-based; details: Homo sapiens, 72 hours, 1 Percent FBS
Experimental: as §1

SMILES | inhibition at 10 µM (MDA-MB-231) | inhibition at 10 µM (DLD-1)
COc1ccc2cc(-c3ccnc(NCCN(C)C)n3)cc(N3CCOCC3)c2c1 [Compound 8, N′-[4-(6-methoxy-4-morpholin-4-yl-2-naphthyl)pyrimidin-2-yl]-N,N-dimethylethane-1,2-diamine] | 45% | –
COc1ccc2cc(-c3ccnc(NCc4cccc(C(F)(F)F)c4)n3)cc(N3CCOCC3)c2c1 [Compound 13, 4-(6-methoxy-4-morpholin-4-yl-2-naphthyl)-N-[3-(trifluoromethyl)benzyl]pyrimidin-2-amine] | – | 98%
COc1ccc2cc(-c3ccnc(NCCc4ccccc4OC)n3)cc(N3CCOCC3)c2c1 [Compound 15, 4-(6-methoxy-4-morpholin-4-yl-2-naphthyl)-N-[2-(2-methoxyphenyl)ethyl]pyrimidin-2-amine] | – | 90%
COc1ccc2cc(-c3ccnc(NCCc4cccc(OC)c4OC)n3)cc(N3CCOCC3)c2c1 [Compound 17, N-[2-(2,3-dimethoxyphenyl)ethyl]-4-(6-methoxy-4-morpholin-4-yl-2-naphthyl)pyrimidin-2-amine] | – | 31%
COc1ccc2cc(-c3ccnc(NCCc4ccccn4)n3)cc(N3CCOCC3)c2c1 [Compound 19, 4-(6-methoxy-4-morpholin-4-yl-2-naphthyl)-N-(2-pyridin-2-ylethyl)pyrimidin-2-amine] | – | 30%
COc1ccc2cc(-c3ccnc(NCc4ccccc4C)n3)cc(N3CCOCC3)c2c1 [Compound 20, 4-(6-methoxy-4-morpholin-4-yl-2-naphthyl)-N-(2-methylbenzyl)pyrimidin-2-amine] | – | 66%
COc1cc(CCNc2nccc(-c3cc(N4CCOCC4)c4cc(OC)ccc4c3)n2)cc(OC)c1 [Compound 27, N-[2-(3,5-dimethoxyphenyl)ethyl]-4-(6-methoxy-4-morpholin-4-yl-2-naphthyl)pyrimidin-2-amine] | – | 87%
CNc1nccc(-c2cc(NC(=O)CN3CCN(c4ccc(C(F)(F)F)cn4)CC3)c3cc(OC)ccc3c2)n1 [Compound 55, N-{7-methoxy-3-[2-(methylamino)pyrimidin-4-yl]-1-naphthyl}-2-{4-[5-(trifluoromethyl)pyridin-2-yl]piperazin-1-yl}acetamide] | 65% | –
CNc1nccc(-c2cc(NC(=O)CN3CCN(Cc4ccc(Cl)cc4)CC3)c3cc(OC)ccc3c2)n1 [Compound 66, 2-[4-(4-chlorobenzyl)piperazin-1-yl]-N-{7-methoxy-3-[2-(methylamino)pyrimidin-4-yl]-1-naphthyl}acetamide] | – | 69%
COc1ccc2cc(-c3ccnc(NCc4ccc(OC)c(OC)c4)n3)cc(NC(=O)OC(C)(C)C)c2c1 [Compound 87, tert-butyl (3-{2-[(3,4-dimethoxybenzyl)amino]pyrimidin-4-yl}-7-methoxy-1-naphthyl)carbamate] | – | 45%
COc1ccc2cc(-c3ccnc(NCc4ccccn4)n3)cc(NC(=O)OC(C)(C)C)c2c1 [Compound 102, tert-butyl (7-methoxy-3-{2-[(pyridin-2-ylmethyl)amino]pyrimidin-4-yl}-1-naphthyl)carbamate] | – | 43%
CNc1nccc(-c2cc(NC3CCN(c4cc(N)ncn4)CC3)c3cc(OC)ccc3c2)n1 [Compound 156, 4-(4-{[1-(6-aminopyrimidin-4-yl)piperidin-4-yl]amino}-6-methoxy-2-naphthyl)-N-methylpyrimidin-2-amine] | – | 34%
CNc1nccc(-c2cc(NC3CCN(c4ncnc5scc(C)c45)CC3)c3cc(OC)ccc3c2)n1 [Compound 160, 4-(6-methoxy-4-{[1-(5-methylthieno[2,3-d]pyrimidin-4-yl)piperidin-4-yl]amino}-2-naphthyl)-N-methylpyrimidin-2-amine] | – | 50%
CNc1nccc(-c2cc(NC3CCN(c4cc(Cl)nc(C)n4)CC3)c3cc(OC)ccc3c2)n1 [Compound 162, 4-(4-{[1-(6-chloro-2-methylpyrimidin-4-yl)piperidin-4-yl]amino}-6-methoxy-2-naphthyl)-N-methylpyrimidin-2-amine] | – | 42%
